Test results as given in US7462618B2, “Treatment of inflammatory autoimmune diseases with alpha-adrenergic antagonists and beta-adrenergic agonists” (Sun Health Research Institute, priority 2003, dated 2008).

Columns and labels:
Lewis rats with AA [1] = test: Adjuvant-induced arthritis, dorsoplantar footpad width (Example 1); assay type: in vivo, rat; details: single drug i.p. twice a day from day 12; by day 28 post-adjuvant injection
Protocol: Lewis rats with AA, a model for RA, were used to examine the combined action of the β2-adrenergic receptor agonist terbutaline and the non-specific α-AR antagonist phentolamine. AA was induced in adult male Lewis rats (200-225 gm) by a base of the tail intradermal injection of complete Freund's adjuvant (CFA). The CFA (0.03 g dried and heat killed Mycobacterium butyricum (Difco, Detroit, Mich.) emulsified in 10 ml sterile mineral oil) was prepared by grinding the M. butyricum with a mortar and pestle until the bacterial cell wall turned from a light beige to an eggshell white powder. The mineral oil was then slowly worked into the bacterial cell wall using the mortar and pestle. The suspension was treated with a sonic dismembraner for 5 minutes to ensure that the bacterial cell wall remained suspended in the mineral oil for animal injections. While there was variability in the severity of disease development between the preparations of adjuvant, there was very little variability within individual batches. […] The inflammatory response in the arthritic rats was assessed by routine methods previously described. Dorsoplantar width of the hind feet were measured using a Mitutoyo Corporation dial thickness gauge, beginning the day of CFA-immunization and continued approximately every other day until sacrifice. […]

Lewis rats with AA [2] = test: Adjuvant-induced arthritis, radiographic scores of hind limbs (Example 1); assay type: in vivo, rat; details: i.p. twice a day from day 12; day 28
Protocol: Lewis rats with AA, a model for RA, were used to examine the combined action of the β2-adrenergic receptor agonist terbutaline and the non-specific α-AR antagonist phentolamine. AA was induced in adult male Lewis rats (200-225 gm) by a base of the tail intradermal injection of complete Freund's adjuvant (CFA). The CFA (0.03 g dried and heat killed Mycobacterium butyricum (Difco, Detroit, Mich.) emulsified in 10 ml sterile mineral oil) was prepared by grinding the M. butyricum with a mortar and pestle until the bacterial cell wall turned from a light beige to an eggshell white powder. The mineral oil was then slowly worked into the bacterial cell wall using the mortar and pestle. The suspension was treated with a sonic dismembraner for 5 minutes to ensure that the bacterial cell wall remained suspended in the mineral oil for animal injections. While there was variability in the severity of disease development between the preparations of adjuvant, there was very little variability within individual batches. All animals in each experiment were challenged with the same preparation of adjuvant and 100% of the animals developed arthritis. Phentolamine (an α-adrenergic receptor antagonist) and terbutaline (a β2-adrenergic receptor agonist) were obtained from Sigma Chemical Company (St. Louis, Mo.). Both adrenergic drugs were dissolved in 0.01 mM ascorbic acid in 0.9% sterile, endotoxin-free saline. Adrenergic therapy with phentolamine and/or terbutaline or vehicle was started on day 12 post-immunization, the time of disease onset, and continued until sacrifice. The dose of phentolamine (500 μg/Kg/day) and/or terbutaline (600 μg/day) were administered by intraperitoneal (i.p.) injections twice a day in a total volume of 500 μl per injection. […] X-rays were evaluated using a grading scale modified from Ackerman and coworkers. […] The radiographs were scored for each of the following characteristics: (1) swelling as indicated by the width of soft tissue shadows and alterations in the normal configuration of the soft tissue planes; (2) osteoporosis as measured by bone density (recognized by increases in radiolucency relative to uninvolved adjacent bone); (3) cartilage loss shown by narrowing of the joint spaces; and (4) heterotopic ossification defined as proliferation of new bone tissue (fine ossified line paralleling normal bone but not contiguous with calcified area of the bone itself). The radiographic scores for each category were added for both hind limbs giving a maximum score of 40, and the individual scores for each animal were then averaged within the treatment groups and expressed as a mean±standard error of the mean (SEM), and subjected to Kruskal-Wallis statistical analysis (non-parametric statistic equivalent to an ANOVA; p<0.05) followed by Dunn post-hoc testing. […]

IL-10/TNFα = test: Ex vivo IL-10 and TNFα production by cells of treated AA rats (sandwich ELISA); assay type: in vivo, rat; details: for Ratio of IL-10/TNFα: cells cultured 24 h, mean ± SEM, N = 6
Source text: To determine if the adrenergic drug treatments were able to modify cytokine patterns in the secondary lymphoid organs and systemically in the blood, pro- and anti-inflammatory cytokine profiles were obtained ex vivo from cells harvested from the draining (inguinal and poplitial) lymph nodes, spleen and the PBMC from the animals described above. All tissue culture media and supplements were obtained from Gibco BRL (Rockville, Md.) unless otherwise stated. OPTIA sandwich ELISA kits for IL-10 and TNFα were purchased from Pharmingen (San Diego, Calif.). The spleen and lymph nodes were aseptically removed from the animal and placed into Hank's balanced salt solution (HBSS). The spleens were placed in a stomacher bag and homogenized for 30 seconds. […] The collected cells were centrifuged and re-suspended in 5 ml of a NH4Cl hypotonic buffer for 3 min to lyse the red blood cells. The cells were washed 2× with 10 ml HBSS, centrifuged and re-suspended into complete RPMI 1640 media supplemented with 5% fetal calf serum and 1% antibiotic/antimycotic. The draining (inguinal and poplitial) lymph nodes were placed into sterile etri dishes containing 5 ml HBSS. […] The homogenates then were passed through a nylon mesh, centrifuged and re-suspended in 5 ml HBSS. The cells then were centrifuged and re-suspended into complete RPMI 1640 media supplemented with 5% fetal calf serum and 1% antibiotic/antimycotic. PBMCs: Blood was collected using cardiac puncture into a 7 ml lithium heparin vaccutainer tubes. The tubes were inverted 7 times and then spun down at 1000 rpm for 15 minutes at 10° C. The buffy coat was removed using a 2 ml pipette and placed into a sterile 15 ml tube containing 10 ml of a NH4Cl hypotonic buffer for 3 min to lyse the red blood cells. The peripheral blood mononuclear cells (PBMC) were centrifuged and re-suspended in 10 ml HBSS. The PBMC were washed three more times with 10 ml HBSS, centrifuged and re-suspended into complete RPMI 1640 media supplemented with 5% fetal calf serum and 1% antibiotic/antimycotic. The prepared cells were counted using a hemocytometer, then brought to the concentration of 2×10^6 cells/ml. Two ml of the cell preparation were plated into 24 well plates (Falcon, Oxnard, Calif.), and in placed in an incubator 7% CO2, 37° C., for 24 h. After 24 h the culture supernatants were harvested and placed in the freezer at -70° C. until ELISA assay. Optia kits for the detection of IL-10 and TNFα were obtained from BD Pharmingen (Los Angeles, Calif.) and sandwich ELISAs were used to measure the amount cytokine released into the culture media. In brief: High binding microtiter 96-well plates were pre-coated with 100 μl of capture antibody in coating buffer (0.1 M carbonate buffer, pH 9.5) for IL-2, IL-4, IFNγ and TNFα and (0.2 M phosphate buffer, pH 6.5) for IL-10. The plates were sealed with plate film (Denville Scientific, South Plainfield, N.J.) and placed at 4° C. overnight. The plates were allowed to come to room temperature and washed with 0.1 M phosphate buffered saline-0.5% Tween 20 (PBS-Tw20). The non-specific binding was blocked using PBS-Tw20 and 1% bovine serum albumin. Standard/sample was then added to each well, the plates were sealed and incubated overnight at 4° C. The plate was washed three times with PBS-Tw20 and biotinylated secondary detection antibody and streptavidin/avidin enzyme conjugate (diluted in PBS-1% bovine serum albumin) were added to the wells and the plates incubated for 1.5 h. The plates were then washed and developed with (TMB) reagent (Pharmingen, San Diego, Calif.) for 30 minutes. After color development the plates were stopped with addition of IN sulfuric acid. Unknown sample cytokine levels were determined through comparison with a standard curve present on each plate using an ELISA reader ([…]: Bio Tek Instruments Incorporated, Winooski, Vt.). […]

[3] = system: collagen-induced arthritis; details: in vivo; cited from earlier work
[4] = system: animals with fully expressed AA; details: cited from earlier work
Th1 cell clones = details: cited from earlier work
Th2 cell clones = details: treated before activation; cited from earlier work
[5] = system: Th cells cultured with B cell clones; details: applied to Th cells before activation, cited from earlier work

SMILES	Soft tissue swelling (dorsoplantar footpad width) compared with vehicle-treated AA rats (Lewis rats with AA [1])	Decrease in bone loss compared to vehicle-treated AA rats (Lewis rats with AA [2]) [%]	Radiographic scores compared with vehicle controls (Lewis rats with AA [2])	Ratio of IL-10/TNFα (IL-10/TNFα; DLN)	Ratio of IL-10/TNFα (IL-10/TNFα; PBL)	Ratio of IL-10/TNFα (IL-10/TNFα; SPL)	Ratio of anti- to pro-inflammatory cytokine production by macrophage cells (IL-10/TNFα; secondary lymphoid organs and peripheral blood)	Severity of collagen-induced arthritis [3]	Joint inflammation and destruction [4]	IL-2-dependent T cell proliferation (Th1 cell clones)	IL-2 and IFNγ production by Th1 cell clones (Th1 cell clones; treated before activation with antigen-specific B cells or anti-CD3 antibodies)	IL-4 or IL-10 production by Th2 cell clones (Th2 cell clones)	IgG2a production ([5]; blockable by nadolol or IFNγ)	IgG1 production [5]
Cc1ccc(N(CC2=NCCN2)c2cccc(O)c2)cc1 [Phentolamine]	significantly decreased	51	significantly reduced	1.0960 ± 0.1961	0.8067 ± 0.1762	3.3350 ± 0.6716	increase							
CC(C)(C)NCC(O)c1ccc(O)c(CO)c1 (centres unmarked) [salbutamol]								reduces the severity						
O=P(O)(O)C(Cl)(Cl)P(=O)(O)O [clodronate]									significantly reduced					
CC(C)(C)NCC(O)c1cc(O)cc(O)c1 (centres unmarked) [Terbutaline, terbutaline]	significantly decreased	~50	significantly reduced	1.5060 ± 0.1642	0.4382 ± 0.0471	2.1370 ± 0.8285				reduced	inhibits	does not affect	inhibited	not
